# Reference: patent publication US20250101052A1, “COMPOUND FOR EGFR KINASE INHIBITOR, COMPOSITION, AND USE THEREOF” (INNOVATION INSTITUTE FOR ARTIFICIAL INTELLIGENCE IN …, priority 2021, published 2025)
# pIC50: −log10 of the molar value. Read-outs that look alike come from different tables or passages of the source.
# What was measured:
# [1] = tested on: BaF3-EGFR^L858R/C797S cells; test: BaF3 cell proliferation inhibition experiment (CCK-8); type: cell-based; conditions: Ba/F3 EGFR-L858R, read-out: BaF3-EGFR^L858R/C797S (IC50 nM)
# Procedure: (§1) A. Cell line: BaF3 cells with stable overexpression of wild-type genes are named BaF3-EGFR^WT, and BaF3 cells with stable overexpression of EGFR^L858R/T790M/C797S EGFR^del19/T790M/C797S EGFR^L858R/C797S and EGFR^del19/C797S mutant genes are named BaF3-EGFR^L858R/T790M/C797S BaF3-EGFR^del19/T790M/C797S BaF3-EGFR^L858R/C797S and BaF3-EGFR^del19/C797S cells, respectively. Mediums:
# (§2) a) The medium was preheated in a 37° C. water bath.
# (§3) b) The cryopreservation tube was taken from the liquid nitrogen tank, quickly placed in a 37° C. water bath, and melted completely within 1 minute.
# (§4) c) The cell suspension was transferred to a 15 mL centrifuge tube containing a 10 mL medium and centrifuged at 1000 rpm for 4 minutes.
# (§5) d) The supernatant was discarded, the cells were resuspended in a 1 mL medium and transferred to a […] culture dish containing a 10 mL medium, 20% serum and 50 ng/mL EGF were administered to the first-generation medium, and culture was conducted in a 37° C. and 5% CO2 incubator.
# (§6) b) The cells in the culture dish were blown evenly with a 5 mL pipette, and 500 μL of the cells were pipetted out to be inoculated into a new […] culture dish and cultured in a 37° C. and 5% CO2 incubator.
# (§7) a) The compound to be tested (10 mM stock solution) was diluted with 100% DMSO to 1 mM, and diluted with a culture solution in a 24-well plate to prepare of a working solution of 2 μM concentration.
# (§8) b) The 2 μM working solution was diluted with a triple dilution method to obtain working solutions with approximate concentrations of 2 μM, 600 nM, 200 nM, 60 nM, and 20 nM.
# (§9) a) The cells at the logarithmic growth phase were centrifuged at 1000 rpm for 4 minutes, resuspended with a medium (containing 10% serum and 50 ng/mL EGF), and counted.
# (§10) b) The cells were inoculated into a 96-well plate with a cell density of 4000 cells/well, and placed in a 37° C. and 5% CO2 incubator for culture for 12 hours.
# (§11) a) The prepared compound was added to a 96-well plate, with 100 μL per well. The final concentrations were 1 μM, 300 nM, 100 nM, 30 nM, 10 nM, and 0 nM, and the final concentration of DMSO was 0.2%. A medium served as a blank control.
# (§12) b) The cells were placed in 37° C. and 5% CO2 incubator for culture for 72 hours.
# (§13) (5) Cell Viability Testing
# (§14) a) The 96-well cell culture plate was taken out, and 20 μL of a CCK-8 reagent (Cell Counting Kit-8, Topscience, Catalog No. C0005) was added in the dark.
# (§15) b) Mixing well was conducted on a horizontal shaking table at a room temperature at 100 rpm for 5 minutes.
# (§16) c) The culture plate was placed in a 37° C. constant-temperature incubator for incubation.
# (§17) The data was analyzed using GraphPad Prism 8.0 software to obtain a fitted curve of activity of the compounds. The IC50 of the compounds was fitted from nonlinear regression equation.
# [2] = tested on: BaF3-EGFR^WT cells; test: as above; type: cell-based; conditions: Mus musculus, BaF3, 72 h, read-out: BaF3-EGFR^WT (IC50 nM)
# Procedure: as §1, §2, §3, §4, §5, §6, §7, §8, §9, §10, §11, §12, §13, §14, §15, §16, §17
# [3] = tested on: BaF3-EGFR^del19/C797S cells; test: as above; type: cell-based; conditions: Mus musculus, read-out: BaF3-EGFR^del19 /C797S (IC50 nM)
# Procedure: as §1, §2, §3, §4, §5, §6, §7, §8, §9, §10, §11, §12, §13, §14, §15, §16, §17
# [4] = tested on: BaF3-EGFR^del19/T790M/C797S cells; test: as above; type: cell-based; conditions: Ba/F3 EGFR-Del19/T790M/C797S, 72 h, read-out: BaF3-EGFR^del19 /T790M/C797S (IC50 nM)
# Procedure: as §1, §2, §3, §4, §5, §6, §7, §8, §9, §10, §11, §12, §13, §14, §15, §16, §17
# [5] = biological target: EGFR^L858R/T790M/C797S kinase (Homo sapiens (Human), UniProt P00533, C797S/L858R/T790M); test: EGFR^L858R/T790M/C797S kinase inhibitory activity experiment; type: biochemical; conditions: in vitro
# How it was run: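 Human EGFR L858R/T790M/C797S mutant preincubated 10 min with compound (10-point dilution from 1 μM), then reacted 60 min at room temperature with ATP and kinase substrate 22. Substrate conversion read by Caliper mobility shift. % inhibition normalized to no-enzyme and no-compound wells, with IC50 from variable-slope log(inhibitor) fit.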
# Chain of EGFR^L858R/T790M/C797S kinase (P00533 25-1210 T790M/C797S/L858R): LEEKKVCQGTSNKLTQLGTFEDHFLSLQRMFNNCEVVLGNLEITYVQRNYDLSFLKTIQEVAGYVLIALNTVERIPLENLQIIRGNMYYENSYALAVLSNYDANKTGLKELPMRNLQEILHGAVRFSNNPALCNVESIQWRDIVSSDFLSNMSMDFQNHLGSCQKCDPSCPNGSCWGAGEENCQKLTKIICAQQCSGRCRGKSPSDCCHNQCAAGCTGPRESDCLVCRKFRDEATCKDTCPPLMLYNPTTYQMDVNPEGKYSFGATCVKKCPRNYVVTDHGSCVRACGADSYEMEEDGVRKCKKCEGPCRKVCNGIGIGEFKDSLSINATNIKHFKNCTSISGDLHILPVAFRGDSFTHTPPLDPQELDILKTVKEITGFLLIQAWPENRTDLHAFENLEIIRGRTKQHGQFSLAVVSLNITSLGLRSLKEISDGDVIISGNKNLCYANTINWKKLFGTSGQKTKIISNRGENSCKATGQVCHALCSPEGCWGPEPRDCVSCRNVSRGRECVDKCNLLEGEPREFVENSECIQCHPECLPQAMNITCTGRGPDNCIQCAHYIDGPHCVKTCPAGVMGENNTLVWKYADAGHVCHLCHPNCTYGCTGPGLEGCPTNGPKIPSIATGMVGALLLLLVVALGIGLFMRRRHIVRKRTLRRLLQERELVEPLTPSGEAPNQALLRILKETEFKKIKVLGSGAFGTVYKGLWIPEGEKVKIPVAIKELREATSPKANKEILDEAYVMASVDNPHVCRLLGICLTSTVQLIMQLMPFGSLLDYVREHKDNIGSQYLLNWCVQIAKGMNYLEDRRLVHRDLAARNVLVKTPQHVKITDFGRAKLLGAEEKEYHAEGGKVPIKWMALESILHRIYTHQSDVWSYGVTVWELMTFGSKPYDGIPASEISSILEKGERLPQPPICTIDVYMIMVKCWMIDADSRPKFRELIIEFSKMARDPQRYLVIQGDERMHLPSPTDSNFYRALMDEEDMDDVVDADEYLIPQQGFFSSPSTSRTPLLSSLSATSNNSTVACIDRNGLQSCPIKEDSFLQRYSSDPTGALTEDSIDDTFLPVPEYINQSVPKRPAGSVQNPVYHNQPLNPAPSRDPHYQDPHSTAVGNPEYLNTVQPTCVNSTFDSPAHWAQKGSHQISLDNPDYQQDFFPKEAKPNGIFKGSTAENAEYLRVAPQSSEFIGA
pIC50 [5],"IC50 ([1]; cell proliferation, 72 hours) [nM]","IC50 ([3]; BaF3, cell proliferation, 72 hours) [nM]",SMILES,IC50 ([1]; 72 h) [nM],IC50 [2] [nM],"IC50 ([3]; BaF3, 72 h) [nM]",IC50 [4] [nM]
,,,"C=CC(=O)Nc1cc(Nc2nccc(-c3cn(C)c4ccccc34)n2)c(OC)cc1N(C)CCN(C)C [AZD9291, reference compound]",> 1000,76.1,> 1000,614
9.70,166,193,"CCc1cc(Nc2ncc(Cl)c(Nc3ccc(C)c(C)c3P(C)(C)=O)n2)c(OC)cc1N1CCC(N2CC3CC2CN3C)CC1 (stereo not shown) [Compound 54, (6-((5-Chloro-2-((5-ethyl-2-methoxy-4-(4-(5-methyl-2,5-diazadicyclo[2.2.1]heptane-2-yl)piperidin-1-yl)phenyl)amino)pyrimidin-4-yl)amino)-2,3-dimethylphenyl)dimethylphosphine oxide]",,,,
